Consider 1 molecule from patent US5246966A, “Substituted alkenoic acid and its derivatives” (Bayer Aktiengesellschaft, priority 1991, dated 1993).

Each structure is given as a SMILES string.

This experiment deals with T1, LTD4 receptor ([3H-LTD4] binding to guinea-pig lung membranes) (Cavia porcellus, UniProt Q2NNR5).
T1 construct: guinea-pig lung membranes; from tissue; host or cells: guinea-pig lung membranes
T1 sequence (Q2NNR5 1-340): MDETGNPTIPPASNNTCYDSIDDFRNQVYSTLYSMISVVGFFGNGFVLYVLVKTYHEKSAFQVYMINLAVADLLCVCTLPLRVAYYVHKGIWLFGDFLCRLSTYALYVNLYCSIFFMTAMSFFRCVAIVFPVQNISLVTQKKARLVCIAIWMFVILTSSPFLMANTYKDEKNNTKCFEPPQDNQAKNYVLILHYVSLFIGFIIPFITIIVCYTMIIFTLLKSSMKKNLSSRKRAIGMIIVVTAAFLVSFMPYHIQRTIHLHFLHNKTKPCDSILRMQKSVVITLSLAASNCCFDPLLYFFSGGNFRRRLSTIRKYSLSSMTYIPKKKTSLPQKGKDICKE
As to the kind of experiment: [3H]-LTD4 binding assay. Conditions: displacement of 0.8 nM 3H-LTD4 from guinea-pig lung membranes, 15 minutes at 20° C., pH 7.4; Cheng and Prusoff correction of IC50; read-out: pKi [3H-LTD4] (converted). The procedure: To evaluate the pharmacological properties the receptor affinity of the compounds were determined by measuring its ability to displace [^3 H-LTD4 ] binding to guinea-pig lung membranes.
Test method: [^3 H]-LTD4 BINDING ASSAY
Increasing concentrations (between 10^-8 and 10^-5 M) of compounds of general formula I were incubated with 0.8 nM^3 H-LTD4 and guinea-pig lung membranes (100-150 μg protein) for 15 minutes at 20° C. in an assay buffer of 10 mM L-cysteine and 1% polypep in 50 mM Tris HCl at pH 7.4. Incubations (total volume 0.25 ml) were terminated by addition of ice-cold Tris HCl (pH 7.4) and rapidly filtered through Whatman GF/C filters which were washed twice with ice-cold buffer. All points were determined in triplicate.
The counts (dpm) bound to each filter were determined by liquid scintillation spectrometry. The amount bound in the presence of each concentration of test compound was compared to the amount of binding in the absence of test compound […] and to the amount bound in the presence of 2 μm LTD4. […]
Where 0.8 nM is the dissociation constant for ^3 H-LTD4 under these conditions and [^3 H-LTD4 ] is the precise concentration (in nM) employed in the assay (also determined by liquid scintillation counting).

Take `O=C(O)CC[C@@H](/C=C\Cc1ccc(OCCCCOc2ccccc2)cc1)Sc1ccc(C(=O)O)cc1` [Example No. 4, Z-[4S]-4-(4-Carboxyphenylthio)-7-[4-(4-phenoxybutoxy)-phenyl]-5-heptenoic acid]: the Ki was 31.6 nM.
